Consider 17 compounds from PubChem BioAssay (NCI).

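A five-concentration, 48-hour dose response in 96-well plates underlies each endpoint, interpolated linearly between surrounding concentrations. Abbreviation: GI50, concentration required for 50% inhibition of growth. TGI marks complete inhibition of growth.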

Common to all, as to experiment: growth of human tumour cells (NCI), 48 h
Assay [1] relates to A498 renal.
Assay [2] deals with CCRF-CEM leukemia.
The subject of assay [3] is IGROV1 ovarian.
In assay [4] the test system is MALME-3M melanoma.
Assay [5] deals with NCI-H23 lung.
The test system of assay [6] is NCI/ADR-RES ovarian.
Assay [7] concerns SK-MEL-28 melanoma.
Assay [8] concerns SNB-19 CNS.
Assay [9] deals with TK-10 renal.
The test system of assay [10] is U251 CNS.

In the case of `CC(=O)N1N=C2/C(=C/c3ccc(Cl)cc3)CC(C)CC2C1c1ccc(Cl)cc1` (configuration not stated), the GI50 was 13 µM in assay [1]; 19.7 µM in [2]; 22.5 µM in assay [3]; 23.6 µM in assay [4]; 25.2 µM in assay [5]; 21.7 µM in assay [6]. The GI50 in [7] is 23.7 µM; in assay [8], 23.7 µM; in assay [9] it was 37.2 µM; in assay [10] it was 25.1 µM. Besides, the TGI in assay [1] was 28.7 µM; in assay [2], 62.6 µM; in assay [3], 67.2 µM; in assay [4], 76.2 µM; in assay [5] it was above 100 µM; in [6] it was above 100 µM. In addition, the TGI was 53.8 µM in assay [7], above 100 µM in [8], above 100 µM in [9] and 86.8 µM in assay [10].

As to `CC(C)(C)c1c2c(c(C(C)(C)C)c3c1OCN(Cc1ccccc1)C3)OCN(Cc1ccccc1)C2`, the TGI was 20.6 µM in [1]; above 100 µM in assay [2]; 45.1 µM in [3]; 43.1 µM in [4]; 27.4 µM in assay [5]; 41 µM in assay [6]. The TGI in [7] was above 100 µM; in assay [8] it was 34.7 µM; in assay [9] it was 32.5 µM; in assay [10], 29.6 µM.

On to `Clc1ccc(-c2cc(-c3ccccc3)nc(NCCNc3ccnc4cc(Cl)ccc34)n2)cc1`, for which the GI50 in assay [1] is 1.64 µM; in assay [2], 2.14 µM; in [3], 1.6 µM; in assay [4] it was 1.71 µM; in [5], 1.76 µM; in assay [6] it was 1.66 µM. In addition, the GI50 in assay [7] is 1.7 µM; in assay [8] it was 1.72 µM; in [9], 1.8 µM; in assay [10], 1.72 µM. Moreover, the TGI in assay [1] amounted to 3.31 µM; in [2] it was 5.56 µM; in assay [3], 3.27 µM; in assay [4], 3.3 µM; in assay [5], 3.6 µM; in [6], 3.4 µM. In addition, the TGI worked out at 3.19 µM in assay [7], 3.59 µM in assay [8], 3.42 µM in assay [9] and 3.37 µM in assay [10].

Consider `CS(=O)(=O)CC(=O)c1ccccc1`, for which the TGI in assay [1], in assay [2], in [3], in assay [4], in assay [5] and in assay [6] was above 100 µM in each case. Also, the TGI in assay [7], in assay [8], in assay [9] and in assay [10] was above 100 µM each time.

On to `Oc1cc2ccccc2c(-c2c(O)c(O)cc3ccccc23)c1O`, for which the GI50 in assay [1] is 1.14 µM; in [2], 0.554 µM; in assay [3] it was 0.273 µM; in assay [4], 3.85 µM; in [5], 0.703 µM; in [6], 1.83 µM. In addition, the GI50 in assay [7] is 3.37 µM; in assay [8], 2.75 µM; in [9] it was 1.38 µM; in assay [10], 1.32 µM. In addition, the TGI in assay [1] was 10.5 µM; in assay [2] it was above 27.7 µM; in assay [3], 3.4 µM; in assay [4], 21.4 µM; in assay [5] it was 15.4 µM; in assay [6] it was 12.4 µM. In addition, the TGI worked out at 20.7 µM in [7], 27.8 µM in assay [8], 30.9 µM in [9] and 20.3 µM in assay [10].

Regarding `Cn1cc(C2=C(c3cn(C)c4ccccc34)C(=O)NC2=O)c2ccccc21`, the GI50 is 0.457 µM in assay [1]; 0.952 µM in assay [2]; 11.7 µM in assay [3]; 4.42 µM in [4]; 2.3 µM in [5]; 1.55 µM in assay [6]. In addition, the GI50 in assay [7] is 3.71 µM; in assay [8], 11.5 µM; in [9], 8.75 µM; in assay [10] it was 1.26 µM. For the same compound, the TGI in assay [1], in assay [2], in [3], in [4], in assay [5] and in assay [6] was above 25 µM throughout. Also, the TGI in assay [7], in [8], in assay [9] and in assay [10] was above 25 µM each time.

On to `O=C(c1ccco1)c1c(C(F)(F)F)n([O-])c2ccc(Cl)cc2[n+]1=O`, for which the GI50 in [1] is 1.46 µM; in assay [3], 0.404 µM; in assay [4] it was 5.86 µM; in assay [5], 0.82 µM; in assay [6] it was 0.819 µM; in [7], 2.04 µM. Besides, the GI50 in assay [8] is 1.58 µM; in assay [9] it was 0.363 µM; in assay [10], 0.487 µM. In addition, the TGI in assay [1] turned out to be 2.99 µM; in [2] it was 0.838 µM; in assay [4], 21.3 µM; in assay [5], 2.55 µM; in assay [6], 10.3 µM; in [7], 5.71 µM. The TGI in assay [8] amounted to 5.67 µM; in assay [9], 1.02 µM; in assay [10], 1.66 µM.

Take `O=c1oc2ccc(Br)cc2c(=O)n1-c1ccc(I)cc1F`: the GI50 in assay [1] is 0.15 µM; in assay [2], 0.625 µM; in [3], 0.378 µM; in assay [4], 0.32 µM; in assay [5], 0.328 µM; in assay [6], 0.355 µM. The GI50 in assay [7] is 0.347 µM; in assay [8], 0.363 µM; in [9] it was 0.631 µM; in [10], 0.375 µM. Besides, the TGI stood at 0.377 µM in [1]; 6.82 µM in assay [2]; 18.9 µM in assay [3]; 1.27 µM in assay [4]; 1.89 µM in [5]; 2.32 µM in [6]. The TGI was 1.75 µM in assay [7], above 70 µM in assay [8], 7.39 µM in [9] and 19.3 µM in assay [10].

Consider `NCOC(=O)Cc1ccc(Br)cc1`, for which the TGI in assay [1], in assay [2], in assay [3], in assay [4], in assay [5] and in assay [6] was above 100 µM each time. Moreover, the TGI in [7], in [8], in assay [9] and in assay [10] was above 100 µM throughout.

For `CC(=O)OC1CC2C3CCC4C[C@@H](NC(=O)C=C(C)C)CC[C@]4(C)C3CC[C@]2(C)[C@H]1C(C)N(C)C` (some centres not stated), the GI50 is 1.71 µM in assay [1]; 1.81 µM in assay [2]; 1.28 µM in [3]; 2.04 µM in [4]; 2.55 µM in assay [5]; 4.13 µM in [6]. The GI50 in assay [7] is 1.75 µM; in [8] it was 3.63 µM; in [9] it was 5.45 µM; in [10], 1.75 µM. The TGI in [1] stood at 4.51 µM; in [2] it was 8.15 µM; in [3], 6.5 µM; in assay [4], 4.53 µM; in [5], 8.56 µM; in assay [6], 16.5 µM. Moreover, the TGI was 3.39 µM in assay [7], 9.06 µM in [8], 13.3 µM in [9] and 5.79 µM in [10].

On to `CCCCCCCCn1ccc2cc(NC(=O)Cn3cc(CN4CCCCC4)nn3)ccc21`, for which the GI50 in assay [1] is 5.05 µM; in [2], 2.01 µM; in assay [3] it was 1.88 µM; in [4], 1.58 µM; in [5], 2.35 µM; in assay [6] it was 2.92 µM. Moreover, the GI50 was 1.75 µM in assay [7], 1.82 µM in assay [8], 2.44 µM in assay [9] and 1.78 µM in [10]. In addition, the TGI in assay [1] is 19.5 µM; in assay [2] it was 7.74 µM; in [3] it was 3.97 µM; in assay [4], 3 µM; in assay [5] it was 6.34 µM; in assay [6] it was 10.2 µM. In addition, the TGI in assay [7] was 3.29 µM; in assay [8], 3.65 µM; in [9] it was 6.63 µM; in [10] it was 3.34 µM.

In the case of `CN(C)c1ccc(/C=C/C2=[N+](C)c3ccccc3C2(C)C)cc1`, the GI50 in assay [1] was 8.86 µM; in [2], 0.456 µM; in assay [3], 2.19 µM; in assay [4], 0.662 µM; in assay [5] it was 0.286 µM; in assay [6] it was 13.7 µM. For the same compound, the GI50 in assay [7] was 1.03 µM; in assay [8] it was 0.691 µM; in assay [9] it was 1.06 µM; in [10], 0.353 µM. In addition, the TGI in assay [1] is 74.9 µM; in assay [2] it was above 100 µM; in assay [3], above 100 µM; in [4], 13.1 µM; in [5], 11.9 µM; in assay [6], above 100 µM. Besides, the TGI in assay [7] is 18 µM; in assay [8], 18.4 µM; in assay [9] it was 32.5 µM; in assay [10], 12.6 µM.

Consider `O=C1c2cc([N+](=O)[O-])ccc2-c2ccc3c4ccc5c6c(ccc(c7ccc1c2c73)c64)C(=O)c1cc([N+](=O)[O-])ccc1-5`, for which the TGI in [1], in assay [2], in assay [3], in assay [4], in assay [5] and in assay [6] was above 100 µM each time. In addition, the TGI in [7], in assay [8], in assay [9] and in [10] was above 100 µM each time.

`N#C[Se]CCCNS(=O)(=O)C1CC2C=CC1C2` (configuration not stated): the GI50 in assay [1] was 0.652 µM; in [2] it was 0.484 µM; in [3] it was 0.383 µM; in [4], 0.416 µM; in assay [5], 1.16 µM; in assay [6], 0.57 µM. Further, the GI50 in assay [7] is 0.486 µM; in [8], 1.05 µM; in [9] it was 0.403 µM; in assay [10], 1.08 µM. Also, the TGI in assay [1] was found to be 2.09 µM; in [2] it was 38.2 µM; in assay [3], 1.65 µM; in [4], 1.87 µM; in assay [5] it was 4.63 µM; in assay [6], 5.12 µM. Also, the TGI in assay [7] stood at 2.77 µM; in assay [8] it was 2.91 µM; in [9], 2.33 µM; in assay [10] it was 3.36 µM.

In the case of `Cn1c(=O)c(Oc2ccc(F)cc2F)cc2cnc(NC3CCS(=O)(=O)CC3)nc21`, the GI50 in [1] was above 25 µM; in assay [2], above 25 µM; in assay [3], above 21.2 µM; in [4], above 25 µM; in assay [5] it was above 25 µM; in assay [6], above 25 µM. Besides, the GI50 in assay [7], in [8], in assay [9] and in [10] was above 25 µM in each case. For the same compound, the TGI in assay [1], in assay [2], in assay [3], in assay [4], in assay [5] and in [6] was above 25 µM each time. Moreover, the TGI in assay [7], in assay [8], in assay [9] and in assay [10] was above 25 µM in each case.

Consider `Cc1cc(C(C)(C)C)cc(CNC2CCCCC2)c1O`, for which the TGI is 30.3 µM in assay [1]; 91 µM in [2]; 26.9 µM in assay [3]; 27.8 µM in [4]; 29.2 µM in assay [5]; 31.2 µM in assay [6]. In addition, the TGI in assay [7] was 30.9 µM; in [8], 31.9 µM; in [9], 29.7 µM; in assay [10], 29.9 µM.

`COc1ccc(C2=NN(C(=O)c3cc(OC)c(OC)c(OC)c3)C(c3ccc(N(C)C)cc3)C2)cc1` (configuration not stated): the GI50 in assay [1] is 0.337 µM; in assay [2] it was 1.8 µM; in [3] it was 0.739 µM; in [4], 41.6 µM; in assay [5] it was 1 µM; in assay [6], 0.379 µM. Also, the GI50 is 0.511 µM in [7], 1.84 µM in assay [8], 0.682 µM in [9] and 0.473 µM in assay [10]. The TGI in [1] is 9.23 µM; in assay [2], above 27.1 µM; in assay [3], above 100 µM; in assay [4], above 100 µM; in assay [5], above 100 µM; in [7] it was above 59.5 µM. Further, the TGI in [8], in [9] and in assay [10] was above 100 µM throughout.
